In patent US4605642A, “CRF antagonists” (The Salk Institute for Biological Studies, priority 1984, dated 1986):
Square brackets hold non-standard residues; d marks the D form. Peptide text beside a SMILES is read from it. Nle = CCCC[C@H](N)C(=O)O

Experiments:
[1] = test system: secretion of β-endorphin by cultured rat pituitary cells; assay: Blocking of β-endorphin (β-END-LI) secretion by cultured rat pituitary cells; type: cell-based; details: general procedure set forth in Example III
Method: (§1) The effectiveness of synthetic CRF antagonists to block the secretion of ACTH and β-endorphin by cultured rat pituitary cells is measured using the procedure as generally set forth in Vale et al., Endocrinology, 91, 562 (1972). In vivo testing is carried out using the general procedure set forth in C. Rivier et al., Science, 218, 377 (1982).

[2] = test system: secretion of ACTH by cultured rat pituitary cells; assay: Blocking of oCRF-stimulated ACTH secretion by cultured rat pituitary cells; type: cell-based; details: general procedure set forth in Example III
Method: as §1

H-DLTFHLLREVAEMTRAEQLAQQAHSNRKLMEII-NH2 [[Ala^19, Thr^22]-hCRF(9-41)]
inhibition of the secretion of β-END-LI (in words) [1]: inhibits the secretion | inhibition of the secretion of ACTH (in words) [2]: inhibits the secretion

H-DLTFALLREMLEMAKAEQEAEQAALNRLLLEEA-NH2 [[Ala^13]-AHC(9-41)]
inhibition of the secretion of β-END-LI (in words) [1]: inhibits the secretion | inhibition of the secretion of ACTH (in words) [2]: inhibits the secretion

CCCC[C@H](NC(=O)[C@H](CCC(=O)O)NC(=O)[C@H](CC(C)C)NC(=O)[C@H](CCCC)NC(=O)[C@H](CCC(=O)O)NC(=O)[C@H](CCCNC(=N)N)NC(=O)[C@H](CC(C)C)NC(=O)[C@H](CC(C)C)NC(=O)[C@H](Cc1c[nH]cn1)NC(=O)[C@H](Cc1ccccc1)NC(=O)[C@@H](NC(=O)[C@H](CC(C)C)NC(=O)[C@@H](N)CC(=O)O)[C@@H](C)O)C(=O)N[C@@H](C)C(=O)N[C@@H](CCCCN)C(=O)N[C@@H](C)C(=O)N[C@@H](CCC(=O)O)C(=O)N[C@@H](CCC(N)=O)C(=O)N[C@@H](CCC(=O)O)C(=O)N[C@@H](C)C(=O)N[C@@H](CCC(=O)O)C(=O)N[C@@H](CCC(N)=O)C(=O)N[C@@H](C)C(=O)N[C@@H](C)C(=O)N[C@@H](CC(C)C)C(=O)N[C@@H](CC(N)=O)C(=O)N[C@@H](CCCNC(=N)N)C(=O)N[C@@H](CC(C)C)C(=O)N[C@@H](CC(C)C)C(=O)N[C@@H](CC(C)C)C(=O)N[C@@H](CCC(=O)O)C(=O)N[C@@H](CCC(=O)O)C(=O)N[C@@H](C)C(N)=O [[Nle^18,21]-AHC(9-41)] (H-DLTFHLLRE[Nle]LE[Nle]AKAEQEAEQAALNRLLLEEA-NH2)
inhibition of the secretion of β-END-LI (in words) [1]: inhibits the secretion | inhibition of the secretion of ACTH (in words) [2]: inhibits the secretion

H-IDLTFHLLRNMIEMARNENQREQAGLNRKYLDEV-NH2 [Carp Urotensin I(8-41)]
inhibition of the secretion of β-END-LI (in words) [1]: inhibits the secretion | inhibition of the secretion of ACTH (in words) [2]: inhibits the secretion

CCCC[C@H](NC(=O)[C@@H](NC(=O)[C@H](CCC(=O)O)NC(=O)[C@H](CC(C)C)NC(=O)[C@H](CC(C)C)NC(=O)[C@H](CCCCN)NC(=O)[C@H](CCCNC(=N)N)NC(=O)[C@H](CC(N)=O)NC(=O)[C@H](CO)NC(=O)[C@H](Cc1c[nH]cn1)NC(=O)[C@H](C)NC(=O)[C@H](CCC(N)=O)NC(=O)[C@H](CCC(N)=O)NC(=O)[C@H](C)NC(=O)[C@H](CC(C)C)NC(=O)[C@H](CCC(N)=O)NC(=O)[C@H](CCC(=O)O)NC(=O)[C@H](C)NC(=O)[C@H](CCCNC(=N)N)NC(=O)[C@H](C)NC(=O)[C@H](C)NC(=O)[C@H](CCC(=O)O)NC(=O)[C@H](CC(C)C)NC(=O)[C@@H](NC(=O)[C@H](CCC(=O)O)NC(=O)[C@H](CCCNC(=N)N)NC(=O)[C@H](CC(C)C)NC(=O)[C@H](CC(C)C)NC(=O)[C@H](Cc1c[nH]cn1)NC(=O)[C@H](Cc1ccccc1)NC(=O)[C@@H](NC(=O)[C@H](CC(C)C)NC(=O)[C@@H](N)CC(=O)O)[C@@H](C)O)C(C)C)[C@@H](C)CC)C(N)=O [[Ala^21, Leu^38, Nle^41]-hCRF(9-41)] (H-DLTFHLLREVLEAARAEQLAQQAHSNRKLLEI[Nle]-NH2)
inhibition of the secretion of β-END-LI (in words) [1]: inhibits the secretion | inhibition of the secretion of ACTH (in words) [2]: inhibits the secretion

H-DLTFHLLRNMIEMARNENQREQAGLNRKYLDEV-NH2 [Carp Urotensin I(9-41)]
inhibition of the secretion of β-END-LI (in words) [1]: inhibits the secretion | inhibition of the secretion of ACTH (in words) [2]: inhibits the secretion

H-DLTLELLREMLEMAKAEQEAEQAALNRLLLEEA-NH2 [[Leu^12, Glu^13]-AHC(9-41)]
inhibition of the secretion of β-END-LI (in words) [1]: inhibits the secretion | inhibition of the secretion of ACTH (in words) [2]: inhibits the secretion

H-LDLTLELLREMLEMEKAEKEAEQAALNRLLLEEA-NH2 [[Glu^13,22, Leu^12, Lys^26]-AHC(8-41)]
inhibition of the secretion of β-END-LI (in words) [1]: inhibits the secretion | inhibition of the secretion of ACTH (in words) [2]: inhibits the secretion

CCCC[C@H](NC(=O)[C@H](CCC(=O)O)NC(=O)[C@H](CC(C)C)NC(=O)[C@H](CCCC)NC(=O)[C@H](CCC(=O)O)NC(=O)[C@H](CCCNC(=N)N)NC(=O)[C@H](CC(C)C)NC(=O)[C@H](CC(C)C)NC(=O)[C@H](Cc1c[nH]cn1)NC(=O)[C@H](Cc1ccccc1)NC(=O)[C@@H](NC(=O)[C@@H](N)CC(C)C)[C@@H](C)O)C(=O)N[C@@H](C)C(=O)N[C@@H](CCCCN)C(=O)N[C@@H](C)C(=O)N[C@@H](CCC(=O)O)C(=O)N[C@@H](CCC(N)=O)C(=O)N[C@@H](CCC(=O)O)C(=O)N[C@@H](C)C(=O)N[C@@H](CCC(=O)O)C(=O)N[C@@H](CCC(N)=O)C(=O)N[C@@H](C)C(=O)N[C@@H](C)C(=O)N[C@@H](CC(C)C)C(=O)N[C@@H](CC(N)=O)C(=O)N[C@@H](CCCNC(=N)N)C(=O)N[C@@H](CC(C)C)C(=O)N[C@@H](CC(C)C)C(=O)N[C@@H](CC(C)C)C(=O)N[C@@H](CCC(=O)O)C(=O)N[C@@H](CCC(=O)O)C(=O)N[C@@H](C)C(N)=O [[Nle^18,21]-AHC(10-41)] (H-LTFHLLRE[Nle]LE[Nle]AKAEQEAEQAALNRLLLEEA-NH2)
inhibition of the secretion of β-END-LI (in words) [1]: inhibits the secretion | inhibition of the secretion of ACTH (in words) [2]: inhibits the secretion

H-LSLELLRKMIEARKQEKEKQQAANNRLLLDII-NH2
inhibition of the secretion of β-END-LI (in words) [1]: inhibits the secretion | inhibition of the secretion of ACTH (in words) [2]: inhibits the secretion

CCCC[C@H](NC(=O)[C@H](CCC(=O)O)NC(=O)[C@H](CC(C)C)NC(=O)[C@H](CCCC)NC(=O)[C@H](CCC(=O)O)NC(=O)[C@H](CCCNC(=N)N)NC(=O)[C@H](CC(C)C)NC(=O)[C@H](CC(C)C)NC(=O)[C@H](Cc1c[nH]cn1)NC(=O)[C@H](Cc1ccccc1)NC(=O)[C@@H](NC(=O)[C@H](CC(C)C)NC(=O)[C@H](CC(=O)O)NC(=O)[C@@H](N)CC(C)C)[C@@H](C)O)C(=O)N[C@@H](C)C(=O)N[C@@H](CCCCN)C(=O)N[C@@H](C)C(=O)N[C@@H](CCC(=O)O)C(=O)N[C@@H](CCC(N)=O)C(=O)N[C@@H](CCC(=O)O)C(=O)N[C@@H](C)C(=O)N[C@@H](CCC(=O)O)C(=O)N[C@@H](CCC(N)=O)C(=O)N[C@@H](C)C(=O)N[C@@H](C)C(=O)N[C@@H](CC(C)C)C(=O)N[C@@H](CC(N)=O)C(=O)N[C@@H](CCCNC(=N)N)C(=O)N[C@@H](CC(C)C)C(=O)N[C@@H](CC(C)C)C(=O)N[C@@H](CC(C)C)C(=O)N[C@@H](CCC(=O)O)C(=O)N[C@@H](CCC(=O)O)C(=O)N[C@@H](C)C(N)=O [[Nle^18,21]-AHC(8-41)] (H-LDLTFHLLRE[Nle]LE[Nle]AKAEQEAEQAALNRLLLEEA-NH2)
inhibition of the secretion of β-END-LI (in words) [1]: inhibits the secretion | inhibition of the secretion of ACTH (in words) [2]: inhibits the secretion

CCCC[C@H](NC(=O)[C@H](CCC(=O)O)NC(=O)[C@H](CC(C)C)NC(=O)[C@@H](NC(=O)[C@H](CCC(=O)O)NC(=O)[C@H](CCCNC(=N)N)NC(=O)[C@H](CC(C)C)NC(=O)[C@H](CC(C)C)NC(=O)[C@H](Cc1c[nH]cn1)NC(=O)[C@H](Cc1ccccc1)NC(=O)[C@@H](NC(=O)[C@H](CC(C)C)NC(=O)[C@@H](N)CC(=O)O)[C@@H](C)O)C(C)C)C(=O)N[C@@H](C)C(=O)N[C@@H](CCCNC(=N)N)C(=O)N[C@@H](C)C(=O)N[C@@H](CCC(=O)O)C(=O)N[C@@H](CCC(N)=O)C(=O)N[C@@H](CC(C)C)C(=O)N[C@@H](C)C(=O)N[C@@H](CCC(N)=O)C(=O)N[C@@H](CCC(N)=O)C(=O)N[C@@H](C)C(=O)N[C@@H](Cc1ccc(O)cc1)C(=O)N[C@@H](CO)C(=O)N[C@@H](CC(N)=O)C(=O)N[C@@H](CCCNC(=N)N)C(=O)N[C@@H](CCCCN)C(=O)N[C@@H](CC(C)C)C(=O)N[C@@H](CCSC)C(=O)N[C@@H](CCC(=O)O)C(=O)N[C@H](C(=O)N[C@H](C(N)=O)[C@@H](C)CC)[C@@H](C)CC [[Nle^21, Tyr^32]-hCRF(9-41)] (H-DLTFHLLREVLE[Nle]ARAEQLAQQAYSNRKLMEII-NH2)
inhibition of the secretion of β-END-LI (in words) [1]: inhibits the secretion | inhibition of the secretion of ACTH (in words) [2]: inhibits the secretion

H-DLTFELLREVLEVARAEQLAQQAHSNRKLMEII-NH2 [[Glu^13, Val^21]-hCRF(9-41)]
inhibition of the secretion of β-END-LI (in words) [1]: inhibits the secretion | inhibition of the secretion of ACTH (in words) [2]: inhibits the secretion

H-DLSLELLRKMIEIEKQEKLKQQAANNRLLMDTI-NH2 [[Leu^26, Met^37]-sauvagine(8-40)]
inhibition of the secretion of β-END-LI (in words) [1]: inhibits the secretion | inhibition of the secretion of ACTH (in words) [2]: inhibits the secretion

H-LDLTFHLLREVLEMAKAEQLAQQAHSNRKLLEII-NH2 [[Lys^23, Leu^38]-hCRF(8-41)]
inhibition of the secretion of β-END-LI (in words) [1]: inhibits the secretion | inhibition of the secretion of ACTH (in words) [2]: inhibits the secretion

H-Asp-CML-Thr-Leu-Glu-CML-CML-Arg-Glu-Met-CML-Glu-Met-CMA-Lys-Ala-Glu-Gln- CML-Ala-Glu-Gln-Ala-CMA-CML-Asn-Arg-Leu-CML-Leu-Glu-Glu-CMA-NH2
inhibition of the secretion of β-END-LI (in words) [1]: inhibits the secretion | inhibition of the secretion of ACTH (in words) [2]: inhibits the secretion

H-DLSLELLRKMIEIAKQEKEKQQAANNRLLMDTI-NH2 [[Ala^21, Met^37]-sauvagine(8-40)]
inhibition of the secretion of β-END-LI (in words) [1]: inhibits the secretion | inhibition of the secretion of ACTH (in words) [2]: inhibits the secretion
